Measured values taken from patent publication US20090130236A1, “ANTI-MICROBIAL AGENT AND ANTI-MICROBIAL COMPOSITION” (Hououdou Co., Ltd., priority 2002, published 2009).
Converted amounts (≈) assume the structure as drawn. Read-outs that look alike come from different tables or passages of the source.

Assays:
[1] = tested on: clinically isolated 26 strains of P. acnes; experiment: MIC, agar plate dilution, Test Example 10; format: cell-based, Propionibacterium acnes; settings: reference data, not obtained through tests simultaneously carried out
[2] = tested on: Staphylococcus spp. (44 Strains); experiment: MIC, agar plate dilution, Test Example 22; format: cell-based
From the text: Strains Used: There were used 44 strains of Staphylococcus spp. […] Sterilized distilled water was used in the dilution of the solution.

[3] = Cutibacterium acnes, read-out: MIC50
[4] = Cutibacterium acnes, read-out: MIC80
[5] = Staphylococcus, read-out: MIC50
[6] = Staphylococcus, read-out: MIC80

For CCC[C@@H]1C[C@@H](C(=O)N[C@@H]([C@H]2O[C@H](SC)[C@H](O)[C@@H](O)[C@H]2O)[C@H](C)Cl)N(C)C1 [CLDM, Clindamycin], the “MIC50” value [1] was 0.10 µg/mL (≈ 0.235 µM), the “MIC80” value [1] was 0.19 µg/mL (≈ 0.447 µM) and the “MIC50” value [2] was 0.10 µg/mL (≈ 0.235 µM). The “MIC80” value [2] was over 100 µg/mL.
With CC1COc2c(N3CCN(C)CC3)c(F)cc3c(=O)c(C(=O)O)cn1c23 (centres unmarked) [OFLX, Ofloxacin] the MIC50 [1, 3] was 0.39 µg/mL (≈ 1.08 µM), the MIC80 [1, 4] was 0.39 µg/mL (≈ 1.08 µM) and the MIC50 [2, 5] was 0.39 µg/mL (≈ 1.08 µM). It also gave an MIC80 [2, 6] of 0.78 µg/mL (≈ 2.16 µM).
Work on CN(C)c1ccc(O)c2c1C[C@H]1C[C@H]3[C@H](N(C)C)C(O)=C(C(N)=O)C(=O)[C@@]3(O)C(O)=C1C2=O [MINO, Minocycline] yielded an MIC50 [1, 3] of 0.05 µg/mL (≈ 0.109 µM), an MIC80 [1, 4] of 0.1 µg/mL (≈ 0.219 µM) and an MIC50 [2, 5] of 0.1 µg/mL (≈ 0.219 µM). The MIC80 [2, 6] was 0.1 µg/mL (≈ 0.219 µM).
CN(C)[C@@H]1C(=O)C(C(N)=O)=C(O)[C@@]2(O)C(=O)C3=C(O)c4c(O)cccc4[C@@](C)(O)[C@H]3C[C@@H]12 [TC, Tetracycline] was tested, and the “MIC50” value [1] was 0.19 µg/mL (≈ 0.428 µM), the “MIC80” value [1] was 0.19 µg/mL (≈ 0.428 µM) and the “MIC50” value [2] was 0.39 µg/mL (≈ 0.878 µM). The “MIC80” value [2] was 25 µg/mL (≈ 56.3 µM).
For CC1CCc2c(N3CCC(O)CC3)c(F)cc3c(=O)c(C(=O)O)cn1c23 (centres unmarked) [NDFX, Nadifloxacin], the MIC50 [1, 3] was 0.19 µg/mL (≈ 0.527 µM), the MIC80 [1, 4] was 0.19 µg/mL (≈ 0.527 µM) and the MIC50 [2, 5] was 0.05 µg/mL (≈ 0.139 µM). For the same compound, the MIC80 [2, 6] was 0.78 µg/mL (≈ 2.16 µM).
